Structures are written as SMILES. Read-outs that look alike come from different tables or passages of the source.

Data set [1] has as its system Cryptosporidium parvum. As to conditions: oral dosing; ref Hulverson et al., 2017; cited from earlier work.
In data set [2] the target is UGA1 N-luciferase expressing C. parvum. To be noted: read-out: EC50 in vitro against C. parvum; ref Hulverson et al., 2017; cited from earlier work.
The subject of data set [3] is CRL-8155 cells. As to conditions: ref Hulverson et al., 2017; cited from earlier work.
Data set [4] concerns HepG2 cells. To be noted: ref Hulverson et al., 2017; cited from earlier work.
The test system of data set [5] is UGA1 N-luciferase expressing C. parvum. Nature of the data set: Nluc expressing C. parvum in vitro growth inhibition in infected HCT-8 cells. To be noted: Cryptosporidium parvum. Format: cell-based.
Data set [6] relates to Cryptosporidium. As to conditions: 1–5 year old malnourished children; ref Amadi et al., 2002; cited from earlier work.
Data set [7] relates to C. parvum. To be noted: Cryptosporidium parvum.
The test system of data set [8] is Tufts University TU502 C. hominis. As to conditions: Cryptosporidium hominis, HCT-8.

As for `CCOc1ccc2cc(-c3nn(CC4CCNCC4)c4ncnc(N)c34)ccc2n1` [BKI 1318], the “Efficacy when orally dosed in vivo in mice” value in data set [1] is recorded as “lacked efficacy”. Moreover, the half-maximal effective concentration (EC50) in data set [2] was 3.2 µM. For the same molecule, the In vitro cytotoxicity result in data set [3] and in data set [4] was “no toxicity” each time.

Take `CC(=O)Oc1ccccc1C(=O)Nc1ncc([N+](=O)[O-])s1` [Nitazoxanide, nitazoxanide]: the EC50 in data set [5] was determined as 3.1 µM; in data set [7] (HCT-8, Bunch Grass Farm C. parvum, high-content imaging), 1.9 µM; in data set [7] (HCT-8, University of Arizona C. parvum) it was 1.68 µM; in data set [8], 2.78 µM. Besides, the “Effectiveness in children with cryptosporidiosis” value in data set [6] was “approximately 30%”.

As usually defined, the EC50 is the concentration at which the effect is half-maximal.
